Key:
[1] = Intrinsic clearance in human liver microsomes at 1 uM and measured upto 30 mins in presence of NADPH by LC-MS analysis; type: ADME, Microsome; details: read-out: CLH (converted)
[2] = molecular target: T1, Mitogen-activated protein kinase kinase kinase kinase 1 (Homo sapiens, UniProt Q92918); assay: Inhibition of human HPK1 in human Jurkat cells assessed as reduction in SLP76 phosphorylation incubated for 1 hr by HTRF assay; type: cell-based
[3] = molecular target: T1, Mitogen-activated protein kinase kinase kinase kinase 1; assay: Binding affinity to recombinant human HPK1 (1 to 346 residues) expressed sf9 cells incubated for 1 hr by LanthaScreen assay
[4] = molecular target: Mast/stem cell growth factor receptor Kit (Homo sapiens, UniProt P10721); assay: Inhibition of KIT (unknown origin) in presence of ATP
[5] = molecular target: T2, Receptor-type tyrosine-protein kinase FLT3 (Homo sapiens, UniProt P36888); assay: Inhibition of FLT3 (unknown origin) in presence of ATP
T2 sequence (P36888 whole entry): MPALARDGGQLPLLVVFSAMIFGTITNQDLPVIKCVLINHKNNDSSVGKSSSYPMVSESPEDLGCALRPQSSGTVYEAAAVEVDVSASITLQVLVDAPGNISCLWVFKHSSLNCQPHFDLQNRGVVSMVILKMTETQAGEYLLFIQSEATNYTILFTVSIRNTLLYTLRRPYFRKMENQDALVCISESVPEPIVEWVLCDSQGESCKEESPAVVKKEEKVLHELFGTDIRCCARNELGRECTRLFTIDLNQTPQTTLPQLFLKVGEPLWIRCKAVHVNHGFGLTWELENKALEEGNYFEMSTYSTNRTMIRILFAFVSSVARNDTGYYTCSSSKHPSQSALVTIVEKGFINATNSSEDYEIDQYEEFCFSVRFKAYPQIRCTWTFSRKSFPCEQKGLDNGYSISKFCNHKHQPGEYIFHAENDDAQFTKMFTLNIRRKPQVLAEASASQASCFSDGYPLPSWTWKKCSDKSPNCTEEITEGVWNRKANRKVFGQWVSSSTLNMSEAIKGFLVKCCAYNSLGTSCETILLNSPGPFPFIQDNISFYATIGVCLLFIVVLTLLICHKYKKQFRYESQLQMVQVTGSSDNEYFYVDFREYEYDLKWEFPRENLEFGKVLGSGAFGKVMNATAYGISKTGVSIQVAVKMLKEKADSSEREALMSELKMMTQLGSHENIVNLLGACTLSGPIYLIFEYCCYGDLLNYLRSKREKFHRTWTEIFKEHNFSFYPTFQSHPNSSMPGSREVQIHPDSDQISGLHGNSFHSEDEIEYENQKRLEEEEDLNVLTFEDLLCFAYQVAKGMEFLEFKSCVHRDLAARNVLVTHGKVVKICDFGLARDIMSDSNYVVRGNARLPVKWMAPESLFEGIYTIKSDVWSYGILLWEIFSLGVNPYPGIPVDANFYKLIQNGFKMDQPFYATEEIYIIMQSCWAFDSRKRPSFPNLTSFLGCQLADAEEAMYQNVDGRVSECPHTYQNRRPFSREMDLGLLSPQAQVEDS

[6] = Permeability across apical to basolateral side in human Caco2 cells at 50 uM and measured after 120 mins by LC-MS analysis; type: ADME, cell-based; details: Caco-2, read-out: permeability
[7] = Clearance in cynomolgus monkey at 1 mg/kg, iv and measured upto 24 hrs by LC-MS/MS analysis; type: ADME, organism-based, Macaca fascicularis; details: in vivo
[8] = AUC in cynomolgus monkey at 3 mg/kg, po and measured upto 24 hrs by LC-MS/MS analysis; type: ADME, organism-based, Macaca fascicularis; design: dose 3 mg/kg, time < 24 hrs, route po; details: in vivo
[9] = Oral bioavailability in cynomolgus monkey at 3 mg/kg and measured upto 24 hrs by LC-MS/MS analysis; type: ADME, organism-based, Macaca fascicularis; details: in vivo
[10] = Half life in cynomolgus monkey at 1 mg/kg, iv and measured upto 24 hrs by LC-MS/MS analysis; type: ADME, organism-based, Macaca fascicularis; details: in vivo
[11] = Volume of distribution at steady state in cynomolgus monkey at 1 mg/kg, iv and measured upto 24 hrs by LC-MS/MS analysis; type: ADME, organism-based, Macaca fascicularis; details: in vivo
[12] = AUC in Sprague-Dawley rat at 3 mg/kg, po and measured upto 24 hrs by LC-MS/MS analysis; type: ADME, organism-based; design: dose 3 mg/kg, time < 24 hrs, route po; details: in vivo
[13] = Clearance in Sprague-Dawley rat at 1.5 mg/kg, iv and measured upto 24 hrs by LC-MS/MS analysis; type: ADME, organism-based; details: in vivo
[14] = Fraction unbound in human plasma by LC-MS/MS analysis; type: ADME, cell-free
Cytochrome P450 2C19 = Cytochrome P450 2C19 (Homo sapiens, UniProt P33261); assay: Time dependent inhibition of CYP2C19 in human liver microsomes using S mephenytoin as substrate by LC-MS analysis; type: ADME, Microsome; details: TDE = time-dependent effect
Cytochrome P450 3A4 [15] = molecular target: T3, Cytochrome P450 3A4 (Homo sapiens, UniProt P08684); assay: Inhibition of CYP3A4 in human liver microsomes using testosterone as substrate by LC-MS analysis; type: ADME, Microsome
Cytochrome P450 3A4 [16] = molecular target: T3, Cytochrome P450 3A4; assay: Inhibition of CYP3A4 in human liver microsomes using midazolam as substrate by LC-MS analysis; type: ADME, Microsome

T1 sequence (Q92918 whole entry, the tested form may be a part): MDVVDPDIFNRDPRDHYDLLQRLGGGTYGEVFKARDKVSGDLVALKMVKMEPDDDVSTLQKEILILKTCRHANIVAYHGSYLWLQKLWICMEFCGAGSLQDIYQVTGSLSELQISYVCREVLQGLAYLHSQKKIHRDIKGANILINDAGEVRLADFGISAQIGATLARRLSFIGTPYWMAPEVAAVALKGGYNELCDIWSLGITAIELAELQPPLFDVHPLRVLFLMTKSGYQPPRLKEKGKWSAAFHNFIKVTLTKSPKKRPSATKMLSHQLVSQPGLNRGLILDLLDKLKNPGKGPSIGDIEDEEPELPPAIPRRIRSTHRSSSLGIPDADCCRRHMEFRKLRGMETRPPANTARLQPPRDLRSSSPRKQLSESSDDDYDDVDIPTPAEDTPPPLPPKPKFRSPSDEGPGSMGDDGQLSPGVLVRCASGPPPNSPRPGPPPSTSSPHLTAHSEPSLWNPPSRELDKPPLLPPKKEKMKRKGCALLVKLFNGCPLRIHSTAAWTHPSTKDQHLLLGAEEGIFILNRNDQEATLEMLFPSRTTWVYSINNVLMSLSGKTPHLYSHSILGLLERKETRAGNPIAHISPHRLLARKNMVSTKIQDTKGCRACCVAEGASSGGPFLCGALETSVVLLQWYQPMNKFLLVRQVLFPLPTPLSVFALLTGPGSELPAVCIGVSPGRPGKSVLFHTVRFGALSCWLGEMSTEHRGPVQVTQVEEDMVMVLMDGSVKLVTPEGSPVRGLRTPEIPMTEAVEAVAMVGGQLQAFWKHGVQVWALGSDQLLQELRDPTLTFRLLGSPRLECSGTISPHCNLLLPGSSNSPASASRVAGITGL
T3 sequence (P08684 whole entry): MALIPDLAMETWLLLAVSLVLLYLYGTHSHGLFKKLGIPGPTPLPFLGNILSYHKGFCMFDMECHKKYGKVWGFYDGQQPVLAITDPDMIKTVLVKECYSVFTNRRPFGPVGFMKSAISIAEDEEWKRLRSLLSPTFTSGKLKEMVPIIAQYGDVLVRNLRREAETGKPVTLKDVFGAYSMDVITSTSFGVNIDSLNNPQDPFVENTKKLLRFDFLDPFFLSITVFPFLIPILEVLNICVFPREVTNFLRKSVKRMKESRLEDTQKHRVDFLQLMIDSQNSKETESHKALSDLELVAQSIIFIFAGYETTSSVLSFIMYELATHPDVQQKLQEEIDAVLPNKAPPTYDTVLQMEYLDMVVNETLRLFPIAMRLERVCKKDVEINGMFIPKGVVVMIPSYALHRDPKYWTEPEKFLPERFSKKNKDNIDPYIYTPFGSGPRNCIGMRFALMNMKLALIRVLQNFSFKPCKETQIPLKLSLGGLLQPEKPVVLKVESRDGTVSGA
Sequence of Mast/stem cell growth factor receptor Kit (P10721 whole entry): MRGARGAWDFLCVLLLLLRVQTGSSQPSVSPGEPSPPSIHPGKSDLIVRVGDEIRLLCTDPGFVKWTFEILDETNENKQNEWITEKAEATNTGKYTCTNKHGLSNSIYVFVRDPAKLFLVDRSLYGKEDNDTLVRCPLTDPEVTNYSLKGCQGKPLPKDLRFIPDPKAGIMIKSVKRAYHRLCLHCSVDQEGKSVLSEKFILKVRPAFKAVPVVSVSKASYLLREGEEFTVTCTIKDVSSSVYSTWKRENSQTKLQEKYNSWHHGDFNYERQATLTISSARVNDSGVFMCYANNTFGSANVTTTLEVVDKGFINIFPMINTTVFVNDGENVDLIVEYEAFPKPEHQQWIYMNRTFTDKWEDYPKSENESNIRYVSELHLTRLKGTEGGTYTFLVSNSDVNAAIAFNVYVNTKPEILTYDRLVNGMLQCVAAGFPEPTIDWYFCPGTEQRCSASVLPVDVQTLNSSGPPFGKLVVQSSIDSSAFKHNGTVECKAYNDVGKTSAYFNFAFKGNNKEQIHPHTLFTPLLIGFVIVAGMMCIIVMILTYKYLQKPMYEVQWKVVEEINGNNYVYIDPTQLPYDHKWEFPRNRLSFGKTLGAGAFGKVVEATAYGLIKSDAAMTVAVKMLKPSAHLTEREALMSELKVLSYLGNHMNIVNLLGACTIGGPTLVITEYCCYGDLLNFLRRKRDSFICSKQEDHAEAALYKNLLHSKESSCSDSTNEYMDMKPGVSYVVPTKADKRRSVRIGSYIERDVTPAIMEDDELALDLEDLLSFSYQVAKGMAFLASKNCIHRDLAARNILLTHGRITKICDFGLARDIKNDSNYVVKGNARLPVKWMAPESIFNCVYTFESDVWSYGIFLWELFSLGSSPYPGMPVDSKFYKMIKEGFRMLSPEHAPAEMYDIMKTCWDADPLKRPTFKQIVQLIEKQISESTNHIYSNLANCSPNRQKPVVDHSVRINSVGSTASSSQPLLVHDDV
Sequence of Cytochrome P450 2C19 (P33261 whole entry): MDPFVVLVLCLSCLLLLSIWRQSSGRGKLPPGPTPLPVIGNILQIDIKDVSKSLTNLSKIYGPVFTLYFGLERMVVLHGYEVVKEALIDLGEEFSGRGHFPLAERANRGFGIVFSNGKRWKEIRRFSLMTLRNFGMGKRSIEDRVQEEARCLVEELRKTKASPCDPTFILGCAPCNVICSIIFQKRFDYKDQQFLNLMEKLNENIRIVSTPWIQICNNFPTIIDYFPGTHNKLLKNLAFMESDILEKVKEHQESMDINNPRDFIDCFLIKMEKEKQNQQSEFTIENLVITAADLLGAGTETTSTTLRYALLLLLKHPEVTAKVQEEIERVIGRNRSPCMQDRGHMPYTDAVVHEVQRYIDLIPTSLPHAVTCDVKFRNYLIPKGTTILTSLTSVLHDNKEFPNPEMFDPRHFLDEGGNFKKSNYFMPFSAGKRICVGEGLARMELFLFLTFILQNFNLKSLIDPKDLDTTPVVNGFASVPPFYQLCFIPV

COc1cccc(F)c1-c1ncc2[nH]nc(-c3cnn(C)c3)c2n1
CLint scaled at 1 µM [1]: 11.7 mL/min/kg | IC50 [2]: 640 nM | Ki [3]: 12 nM

CNCc1cc(F)c(-c2cc3c(-c4cnn(C)c4)n[nH]c3cn2)c(OC)c1
CLint scaled at 1 µM [1]: < 8.33 mL/min/kg | IC50 [4]: 857 nM | IC50 [2]: 219 nM | IC50 [5]: 260 nM | Ki [3]: 3 nM | Papp A→B at 2 h, 50 µM [6]: 0.2 ×10⁻⁶ cm/s

CCNCc1cc(C)c(-c2cc3c(-c4cnn(C)c4)n[nH]c3cn2)c(F)c1
clearance [7]: 11 mL/min/kg | AUC at 24 h [8]: 1.64 µM·h | CLint scaled at 1 µM [1]: < 8.33 mL/min/kg | IC50 [2]: 137 nM | Ki [3]: 5 nM | bioavailability [9]: 16% | Papp A→B at 2 h, 50 µM [6]: 1.4 ×10⁻⁶ cm/s | half-life [10]: 6.3 h | Vdss [11]: 3.9 L/kg | AUC at 24 h [12]: 0.761 µM·h | clearance [13]: 102 mL/min/kg | fraction unbound [14]: 0.61

COc1cccc(F)c1-c1cc2c(-c3cnn(C)c3)n[nH]c2cn1
CLint scaled at 1 µM [1]: 13.3 mL/min/kg | IC50 [2]: 148 nM | Ki [3]: 2 nM

CN1CCN(c2ccc(-c3n[nH]c4ccc(-c5ccccc5)nc34)cc2)CC1
Ki [3]: 223 nM

CNCc1cc(C)c(-c2cc3c(-c4cnn(C)c4)n[nH]c3cn2)c(F)c1
clearance [7]: 20 mL/min/kg | AUC at 24 h [8]: 0.759 µM·h | inhibition (INH) (Cytochrome P450 2C19): Tde | CLint scaled at 1 µM [1]: < 8.33 mL/min/kg | IC50 [4]: 7470 nM | IC50 [2]: 91 nM | IC50 [5]: 1510 nM | Ki [3]: 2.7 nM | bioavailability [9]: 7% | IC50 (Cytochrome P450 3A4 [15]): > 25000 nM | Papp A→B at 2 h, 50 µM [6]: 1.1 ×10⁻⁶ cm/s | half-life [10]: 5.5 h | Vdss [11]: 4.6 L/kg | AUC at 24 h [12]: 0.456 µM·h | clearance [13]: 118 mL/min/kg | fraction unbound [14]: 0.41 | IC50 (Cytochrome P450 3A4 [16]): > 25000 nM

CNC(C)c1cc(C)c(-c2cc3c(-c4cnn(C)c4)n[nH]c3cn2)c(F)c1 (configuration not stated)
clearance [7]: 18.3 mL/min/kg | AUC at 24 h [8]: 3.93 µM·h | CLint scaled at 1 µM [1]: < 8.33 mL/min/kg | IC50 [2]: 94 nM | Ki [3]: 4 nM | bioavailability [9]: 50% | Papp A→B at 2 h, 50 µM [6]: 0.2 ×10⁻⁶ cm/s | half-life [10]: 8.6 h | Vdss [11]: 7.6 L/kg | AUC at 24 h [12]: 0.799 µM·h | clearance [13]: 93.3 mL/min/kg | fraction unbound [14]: 0.49

CNCc1cc(F)c(-c2cc3c(-c4cnn(C)c4)n[nH]c3cn2)c(F)c1
CLint scaled at 1 µM [1]: < 8.33 mL/min/kg | IC50 [4]: 1080 nM | IC50 [2]: 117 nM | IC50 [5]: 366 nM | Ki [3]: 5.4 nM | IC50 (Cytochrome P450 3A4 [15]): > 25000 nM | Papp A→B at 2 h, 50 µM [6]: 0.7 ×10⁻⁶ cm/s | IC50 (Cytochrome P450 3A4 [16]): > 25000 nM

COc1cccc(F)c1-c1ncc2[nH]nc(-c3ccc(N4CCN(C)CC4)cc3)c2n1
CLint scaled at 1 µM [1]: > 18.3 mL/min/kg | IC50 [2]: 258 nM | Ki [3]: 2.5 nM

COc1cccc(F)c1-c1cc2c(-c3ccc(N4CCN(C)CC4)cc3)n[nH]c2cn1
CLint scaled at 1 µM [1]: 18.3 mL/min/kg | IC50 [2]: 144 nM | Ki [3]: < 1 nM

Cc1cc(C2CCCCN2)cc(F)c1-c1cc2c(-c3cnn(C)c3)n[nH]c2cn1 (configuration not stated)
clearance [7]: 9 mL/min/kg | AUC at 24 h [8]: 7.84 µM·h | CLint scaled at 1 µM [1]: < 8.33 mL/min/kg | IC50 [2]: 138 nM | Ki [3]: 4.6 nM | bioavailability [9]: 55% | Papp A→B at 2 h, 50 µM [6]: 0.4 ×10⁻⁶ cm/s | half-life [10]: 8.9 h | Vdss [11]: 4.6 L/kg | AUC at 24 h [12]: 1.46 µM·h | clearance [13]: 80 mL/min/kg | fraction unbound [14]: 0.5

CNCc1cc(F)c(-c2cc3c(-c4cnn(C)c4)n[nH]c3cn2)c(C(F)(F)F)c1
inhibition (INH) (Cytochrome P450 2C19): Tde | CLint scaled at 1 µM [1]: < 8.33 mL/min/kg | IC50 [4]: 1980 nM | IC50 [2]: 128 nM | IC50 [5]: 2230 nM | Ki [3]: 3.5 nM | IC50 (Cytochrome P450 3A4 [15]): > 25000 nM | Papp A→B at 2 h, 50 µM [6]: 1.6 ×10⁻⁶ cm/s | IC50 (Cytochrome P450 3A4 [16]): > 25000 nM

CN1CCN(c2ccc(-c3n[nH]c4cc(-c5ccccc5)cnc34)cc2)CC1
Ki [3]: 1150 nM

CN1CCN(c2ccc(-c3n[nH]c4ccc(-c5ccccc5F)nc34)cc2)CC1
IC50 [2]: 2740 nM | Ki [3]: 28 nM

COc1cc(OC)c(F)c(-c2ncc3c(-c4ccc(N5CCN(C)CC5)cc4)n[nH]c3n2)c1F
Ki [3]: 91 nM

CN1CCN(c2ccc(Nc3ncc4ccc(-c5ccccc5)cc4n3)cc2)CC1
Ki [3]: 492 nM

COc1cccc(F)c1-c1ccc2[nH]nc(-c3ccc(N4CCN(C)CC4)cc3)c2n1
CLint scaled at 1 µM [1]: > 18.3 mL/min/kg | IC50 [2]: 395 nM | Ki [3]: 3 nM

Source: ChEMBL document CHEMBL5223162, “Discovery of Pyrazolopyridine Derivatives as HPK1 Inhibitors” (ACS Med Chem Lett, 2023)
